Measurements published in patent publication US4782176A, “Phenoxycarboxylic acids” (Hoffmann-La Roche Inc., priority 1983, dated 1988).
Like-named read-outs stand apart in the source and are kept apart here.

What was measured:
[1] = system: SRS-A-induced constriction of the guinea pig ileum; assay: Guinea Pig Ileum, In Vitro (inhibition of SRS-A-induced constriction); conditions: Cavia porcellus; SRS-A (EC50 dose) challenge, 37° C., atropine and pyrilamine present
Method: (a) Guinea Pig Ileum, In Vitro:
The guinea pig ileum bioassay system has been described by Orange and Austen, Adv. Immunol. […] A 1.5 cm segment is removed from animals weighing 300-400 g and suspended in an organ bath containing 10 ml of Tyrodes solution with 10^-6 M atropine sulfate and 10^-6 M pyrilamine maleate. […] The SRS-A utilized in this screen is obtained by challenging chopped lung fragments from actively sensitized guinea pigs with egg albumin, in vitro. A dose-response curve to SRS-A challenge is established for the ileum. […] The drug concentration which inhibits, by 50%, the SRS-A-induced constriction of the guinea pig ileum is determined.

[2] = system: leukotriene E4-induced bronchoconstriction; assay: Guinea Pig Bronchoconstriction, In Vivo (leukotriene E4 challenge; drug i.v. or oral); conditions: for Guinea Pig Bronchoconstriction, In Vivo % I, 10 mg/kg I.V.: leukotriene E4 challenge; for inhibition in vivo at 100 mg/kg: Cavia porcellus, po, 100 mg/kg p.o.
Method: (b) Guinea Pig Bronchoconstriction, In Vivo:
Male guinea pigs (Hostley strain) weighing 300 to 450 grams are anesthetized with urethane (2 g/kg) intraperitoneally and a polyethylene cannula is inserted into the jugular vein for intravenous drug administration. Tracheal pressure is recorded from a cannula inserted in the trachea and connected to a Statham pressure transducer. Respiration is paralyzed with succinyl choline (1.2 mg/kg, i.v.) and the animals are mechanically respirated (Howard rodent respirator) at 40 breaths/minute and 2.5 cc tidal volume. Two minutes thereafter, propanolol (0.1 mg/kg, i.v.) is administered. Five minutes later, the animals are pretreated intravenously for 30 seconds (at 10 mg/kg) with test drug or control vehicle. The animals are subsequently challenged with a maximally constrictory dose of leukotriene E4 also administered intravenously. The change (cm H2 O) between pre and peak ventilatory pressure readings is averaged for three control animals and five drug treated animals. The percent inhibition is calculated from the following formula: (Control-Drug Treated/Control)×100. For determination of oral activity, spontaneously breathing animals are pretreated orally for 2 hours (at 100 mg/kg) prior to challange with leukitriene E4.

[3] = system: leukotriene E4-induced bronchoconstriction; assay: Guinea Pig Bronchoconstriction, In Vivo (Aerosol)
Method: (c) Guinea Pig Bronchoconstriction, In Vivo (Aerosol):
(§1) Male guinea pigs (Hartley strain) weighing 300 to 500 g are anesthetized with urethane (2 g/kg) intraperitoneally and a polyethylene cannula is inserted into the jugular vein for drug administration. Tracheal pressure is recorded from a cannula inserted in the trachea and connected to a Statham pressure transducer. After surgical preparation of the animals, a period of time is allowed for pulmonary functions to stabilize. The test compound is administered according to the following protocol. Propanolol (0.1 mg/kg) is administered intravenously while the animals breathed spontaneously. Five minutes thereafter, the animals are exposed for a five minute period to a 1% (w/v) aerosol solution of test compound (adjusted to an alkaline pH where necessary for drug solubilization) or to distilled water of the appropriate pH (for control purposes). A Monaghan (Model 750) ultrasonic nebulizer is used to administer all test compounds by inhalation. The nebulizer ultrasonic frequency is adjusted to produce particles in the 1-8μ diameter range (average 3μ). Aqueous solutions are prepared fresh and introduced into the chamber of the nebulizer. The output of the nebulizer is made available to the animal by directing a bias flow of aerosol through a y tube connected to the tracheal cannula. At the end of the exposure period, the animals are paralyzed with succinylcholine (1.2 mg/kg, i.v.) and mechanically respirated (Harvard rodent respirator) at 40 breaths/minute and 2.5 cc tidal volume. Animals are then challenged with a maximum constrictory dose of leukotriene E4 delivered intravenously 30 seconds after administration of the succinylcholine.
(§2) The change (cm H2 O) between pre and peak ventilatory pressure readings is averaged for the three control animals and five drug treated animals. The percent inhibition is calculated from the following formula: [formula] When various drug concentrations are tested, the percent inhibition at each concentration is plotted as log concentration (abscissa) versus percent inhibition (ordinate) and the IC50 is determined from linear regression analysis.

[4] = system: leukotriene E4-induced bronchoconstriction; assay: Guinea Pig Bronchoconstriction, In Vivo (Aerosol), duration of action; conditions: 1% aerosol; time for % inhibition to fall below 40%
Method: as §1, §2
In order to determine the duration of action (doa), the animals are prepared as described above, except that the time between aerosol exposure and challenge with LTE4 is varied. All compounds are administered at a concentration of 1%. Duration of action is calculated from plots of time (abscissa) versus % inhibition (ordinate). The duration of action is defined as the time for the % inhibition to fall below 40%.

[5] = LD50; conditions: in vivo, species not given
[6] = time after exposure not given, leukotriene E4 challenge
[7] = 2 hours prior to leukotriene E4 challenge
[8] = determined 30 seconds after exposure to test drug (footnote a)

Row | Guinea Pig Bronchoconstriction, In Vivo Aerosol IC50 (%) ([3]; determined 15 minutes after exposure to test drug (footnote b)) | Structure (SMILES) | IC50 [1] [nM] | Guinea Pig Bronchoconstriction, In Vivo % I, 10 mg/kg I.V. [2] [%] | Guinea Pig Bronchoconstriction, In Vivo Aerosol IC50 (%) [3, 6] [%] | Aerosol Duration of Action [4] [min] | inhibition in vivo at 100 mg/kg [2, 7] [%] | Guinea Pig Bronchoconstriction, In Vivo Aerosol IC50 (%) [3, 8] [%] | LD50 ([5]; ip, read-out: LD50 i.p.) [mg/kg] | LD50 ([5]; po, read-out: LD50 p.o.) [mg/kg] | oral activity in guinea pig bronchoconstriction (in words) ([2]; oral, 100 mg/kg, 2 hours prior to leukotriene E4 challenge)
1 | – | CCCc1c(OCCOCCOCCOCCOc2c(C(C)=O)ccc(OCC(=O)O)c2CCC)ccc(C(C)=O)c1O [[4-acetyl-3-[2-[2-[2-[2-(4-acetyl-3-hydroxy-2-propylphenoxy)ethoxy]ethoxy]ethoxy]ethoxy]-2-propylphenoxy]acetic acid] | 300 | 90 | 0.04 | 73 | – | – | – | – | –
2 | – | CCCc1c(OCCCOCCCOc2c(C(C)=O)ccc(OCCCC(=O)O)c2CCC)ccc(C(C)=O)c1O [4-[4-Acetyl-3-[3-[3-(4-acetyl-3-hydroxy-2-propylphenoxy)propoxy]propoxy]-2-propylphenoxy]butanoic acid] | 200 | 93 | 0.008 | 37 | 56 | – | – | – | –
3 | 0.1 | CCCc1c(OCC(O)COc2c(C(C)=O)ccc(OCC(=O)O)c2CCC)ccc(C(C)=O)c1O (racemic) [racemic [4-acetyl-3-[3-(4-acetyl-3-hydroxy-2-propylphenoxy)-2-hydroxypropoxy]-2-propylphenoxy]acetic acid] | 1000 | 89 | – | 72 | 29 | – | – | – | –
4 | – | CCCc1c(OCCCOc2c(C(C)=O)ccc(OCCCC(=O)O)c2CCC)ccc(C(C)=O)c1O [4-[4-acetyl-3-[3-(4-acetyl-3-hydroxy-2-propylphenoxy)propoxy]-2-propylphenoxy]butanoic acid] | 200 | 97 | – | – | 81 | 0.44 | 650 | 770 | –
5 | – | CCCc1c(OCC(O)COc2ccc3c(=O)cc(C(=O)O)oc3c2CCC)ccc(C(C)=O)c1O (stereo not shown) [7-[3-(4-Acetyl-3-hydroxy-2-propylphenoxy)-2-hydroxypropoxy]-4-oxo-8-propyl-4H-1-benzopyran-2-carboxylic acid, reference compound] | – | 98 | – | – | – | – | – | – | orally inactive
6 | – | CCCc1c(OCCOCCOc2c(C(C)=O)ccc(OCC(=O)O)c2CCC)ccc(C(C)=O)c1O [[4-acetyl-3-[2-[2-(4-acetyl-3-hydroxy-2-propylphenoxy)ethoxy]ethoxy]-2-propylphenoxy]acetic acid] | 200 | 86 | 0.02 | 14 | 26 | – | 170 | 800 | –
7 | – | CCCc1c(OCCCCCOc2c(C(C)=O)ccc(OCC(=O)O)c2CCC)ccc(C(C)=O)c1O [[4-acetyl-3-[5-(4-acetyl-3-hydroxy-2-propylphenoxy)pentyloxy]-2-propylphenoxy]acetic acid] | 100 | 91 | 0.02 | 55 | 51 | – | 140 | 900 | –
8 | – | CCCc1c(OCCCCCOc2c(C(C)=O)ccc(OCCCC(=O)O)c2CCC)ccc(C(C)=O)c1O [4-[4-acetyl-3-[[5-(4-acetyl-3-hydroxy-2-propylphenoxy)pentyl]oxy]-2-propylphenoxy]butanoic acid] | 1000 | 92 | 0.01 | 46 | 84 | – | – | – | –
9 | – | CCCc1c(OCCCOc2c(C(C)=O)ccc(OCC(=O)O)c2CCC)ccc(C(C)=O)c1O [[4-acetyl-3-[3-(4-acetyl-3-hydroxy-2-propylphenoxy)propoxy]-2-propylphenoxy]acetic acid] | 2000 | 95 | – | 90 | 52 | 0.07 | 90 | 500 | –
10 | – | CCCc1c(OCCOCCOCCOc2c(C(C)=O)ccc(OCC(=O)O)c2CCC)ccc(C(C)=O)c1O [[4-acetyl-3-[2-[2-[2-(4-acetyl-3-hydroxy-2-propylphenoxy)ethoxy]ethoxy]ethoxy]-2-propylphenoxy]acetic acid] | 1000 | 85 | 0.04 | 42 | 4 | – | 120 | 650 | –
